Experimental data published in patent US20070021419A1, “2-Aminophenyl-4-phenylpyrimidines as kinase inhibitors” (Cyclacel Limited, priority 2003, published 2007).

Columns and labels:
CDK1/cyclin B = CDK1/cyclin B (Homo sapiens, UniProt P06493); assay: Kinase assay, radioactive phosphate incorporation, CDK1/cyclin B; assay type: biochemical; settings: 100 μM ATP, 30° C.; read-out: Kinase inhibition IC50 CDK1/cyclin B
Protocol: (§1) The compounds from the examples above were investigated for their ability to inhibit the enzymatic activity of various protein kinases. This was achieved by measurement of incorporation of radioactive phosphate from ATP into appropriate polypeptide substrates. Recombinant protein kinases and kinase complexes were produced or obtained commercially. Assays were performed using 96-well plates and appropriate assay buffers (typically 25 mM β-glycerophosphate, 20 mM MOPS, 5 MM EGTA, 1 mM DTT, 1 mM Na3VO3, pH 7.4), into which were added 2-4 μg of active enzyme with appropriate substrates. The reactions were initiated by addition of Mg/ATP mix (15 mM MgCl2+100 μM ATP with 30-50 kBq per well of [γ-^32P]-ATP) and mixtures incubated as required at 30° C. Reactions were stopped on ice, followed by filtration through p81 filterplates or GF/C filterplates (Whatman Polyfiltronics, Kent, UK). After washing 3 times with 75 mM aq orthophosphoric acid, plates were dried, scintillant added and incorporated radioactivity measured in a scintillation counter (TopCount, Packard Instruments, Pangbourne, Berks, UK). Compounds for kinase assay were made up as 10 mM stocks in DMSO and diluted into 10% DMSO in assay buffer.

CDK2/cyclin A = CDK2/cyclin A (Homo sapiens, UniProt P24941); assay: Kinase assay, radioactive phosphate incorporation, CDK2/cyclin A; assay type: biochemical; settings: 100 μM ATP, 30° C.; read-out: Kinase inhibition IC50 CDK2/cyclin A
Summary of the method: (§2)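 Steps: enzyme (2-4 μg) plus substrate in pH 7.4 buffer with DTT and vanadate; start with 100 μM ATP/15 mM MgCl2 containing [γ-32P]-ATP; incubate at 30° C; stop on ice; filter, wash with 75 mM orthophosphoric acid; scintillation count. Compounds diluted from DMSO stocks into 10% DMSO buffer.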

CDK2/cyclin E = CDK2/cyclin E (Homo sapiens, UniProt P24941); assay: Kinase assay, radioactive phosphate incorporation, CDK2/cyclin E; assay type: biochemical; settings: 100 μM ATP, 30° C.; read-out: Kinase inhibition IC50 CDK2/cyclin E
Summary of the method: as §2

CDK4/cyclin D1 = CDK4/cyclin D1 (Homo sapiens, UniProt P11802); assay: Kinase assay, radioactive phosphate incorporation, CDK4/cyclin D1; assay type: biochemical; settings: 100 μM ATP, 30° C.; read-out: Kinase inhibition IC50 CDK4/cyclin D1
Summary of the method: as §2

CDK7/cyclin H = CDK7/cyclin H (Homo sapiens, UniProt P50613); assay: Kinase assay, radioactive phosphate incorporation, CDK7/cyclin H; assay type: biochemical; settings: 100 μM ATP, 30° C.; read-out: Kinase inhibition IC50 CDK7/cyclin H
Summary of the method: as §2

GSK3β = GSK3β (Homo sapiens, UniProt P49841); assay: Kinase assay, radioactive phosphate incorporation, GSK3β; assay type: biochemical; settings: 100 μM ATP, 30° C.; read-out: Kinase inhibition IC50 GSK3β
Summary of the method: as §2

Aurora-A = molecular target: T1, Aurora-A (Homo sapiens, UniProt O14965); assay: Kinase assay, radioactive phosphate incorporation, Aurora-A; assay type: biochemical; settings: 100 μM ATP, 30° C.; read-out: Kinase inhibition IC50 Aurora-A
T1 sequence (O14965 1-403): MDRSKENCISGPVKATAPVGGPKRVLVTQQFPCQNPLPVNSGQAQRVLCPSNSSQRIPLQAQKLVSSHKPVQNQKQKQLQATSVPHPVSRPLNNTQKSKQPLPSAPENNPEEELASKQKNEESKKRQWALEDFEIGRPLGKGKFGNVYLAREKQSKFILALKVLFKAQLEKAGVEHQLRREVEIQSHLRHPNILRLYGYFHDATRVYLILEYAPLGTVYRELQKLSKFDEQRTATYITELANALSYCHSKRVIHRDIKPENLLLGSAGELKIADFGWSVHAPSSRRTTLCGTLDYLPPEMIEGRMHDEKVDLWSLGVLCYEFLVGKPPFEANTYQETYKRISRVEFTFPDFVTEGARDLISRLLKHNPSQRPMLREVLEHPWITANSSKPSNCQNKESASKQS
Protocol: as §1

CDK9/cyclin T1 = CDK9/cyclin T1 (Homo sapiens, UniProt P50750); assay: Kinase assay, radioactive phosphate incorporation, CDK9/cyclin T1; assay type: biochemical; settings: 100 μM ATP, 30° C.; read-out: Kinase inhibition IC50 CDK9/cyclin T1
Summary of the method: as §2

A549 = assay: 72-h MTT cytotoxicity assay, A549; assay type: cell-based; settings: Homo sapiens, read-out: 72-h MTT IC50 A549, A549 cell line
Summary of the method: (§3)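 Triplicate cultures, plated by doubling time, are treated 72 h at 37° C with compounds diluted 1/3 stepwise; after PBS washing, MTT (stock 5 mg/mL) is applied 4 h without light, then DMSO dissolves the formazan.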

HT29 = assay: 72-h MTT cytotoxicity assay, HT29; assay type: cell-based; settings: Homo sapiens, HT-29, read-out: 72-h MTT IC50 HT29, HT29 cell line
Summary of the method: as §3

Saos-2 = assay: 72-h MTT cytotoxicity assay, Saos-2; assay type: cell-based; settings: Homo sapiens, read-out: 72-h MTT IC50 Saos-2, Saos-2 cell line
Summary of the method: as §3

[1] = tested on: transformed human cell lines (A549, HT29, Saos-2); assay: 72-h MTT cytotoxicity assay, average of cell lines; assay type: cell-based; settings: read-out: 72-h MTT IC50 Average, average of A549, HT29, Saos-2
Summary of the method: as §3

Chain of CDK9/cyclin T1 (P50750 whole entry, species assumed): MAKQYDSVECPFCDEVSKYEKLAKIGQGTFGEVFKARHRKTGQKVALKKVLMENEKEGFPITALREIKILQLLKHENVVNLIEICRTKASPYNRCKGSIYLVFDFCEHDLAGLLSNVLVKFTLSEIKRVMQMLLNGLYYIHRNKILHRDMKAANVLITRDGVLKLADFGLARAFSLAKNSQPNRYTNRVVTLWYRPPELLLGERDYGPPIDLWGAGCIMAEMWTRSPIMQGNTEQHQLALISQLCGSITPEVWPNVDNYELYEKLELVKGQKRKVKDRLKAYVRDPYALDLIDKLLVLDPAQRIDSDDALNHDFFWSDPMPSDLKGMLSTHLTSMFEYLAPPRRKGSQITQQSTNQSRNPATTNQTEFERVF
Chain of CDK9/cyclin T1 (O60563 whole entry partner, species assumed): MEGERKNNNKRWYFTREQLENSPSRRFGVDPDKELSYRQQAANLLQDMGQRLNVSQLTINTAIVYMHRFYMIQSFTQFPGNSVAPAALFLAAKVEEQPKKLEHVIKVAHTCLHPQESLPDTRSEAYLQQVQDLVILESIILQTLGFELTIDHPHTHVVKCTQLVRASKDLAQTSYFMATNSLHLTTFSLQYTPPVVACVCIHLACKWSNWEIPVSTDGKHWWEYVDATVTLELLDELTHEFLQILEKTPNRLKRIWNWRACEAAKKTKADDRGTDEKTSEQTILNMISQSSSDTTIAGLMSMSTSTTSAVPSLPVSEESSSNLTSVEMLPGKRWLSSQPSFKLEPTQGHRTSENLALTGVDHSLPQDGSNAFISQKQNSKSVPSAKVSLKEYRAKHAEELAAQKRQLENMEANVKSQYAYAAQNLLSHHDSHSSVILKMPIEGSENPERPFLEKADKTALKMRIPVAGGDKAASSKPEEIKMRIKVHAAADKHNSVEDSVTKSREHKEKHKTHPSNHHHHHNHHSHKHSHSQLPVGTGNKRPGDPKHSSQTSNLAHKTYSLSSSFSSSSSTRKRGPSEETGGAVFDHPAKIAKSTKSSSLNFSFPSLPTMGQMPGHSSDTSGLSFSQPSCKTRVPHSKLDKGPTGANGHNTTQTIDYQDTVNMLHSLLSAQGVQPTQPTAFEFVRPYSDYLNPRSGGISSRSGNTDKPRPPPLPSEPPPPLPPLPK
Chain of GSK3β (P49841 whole entry, species assumed): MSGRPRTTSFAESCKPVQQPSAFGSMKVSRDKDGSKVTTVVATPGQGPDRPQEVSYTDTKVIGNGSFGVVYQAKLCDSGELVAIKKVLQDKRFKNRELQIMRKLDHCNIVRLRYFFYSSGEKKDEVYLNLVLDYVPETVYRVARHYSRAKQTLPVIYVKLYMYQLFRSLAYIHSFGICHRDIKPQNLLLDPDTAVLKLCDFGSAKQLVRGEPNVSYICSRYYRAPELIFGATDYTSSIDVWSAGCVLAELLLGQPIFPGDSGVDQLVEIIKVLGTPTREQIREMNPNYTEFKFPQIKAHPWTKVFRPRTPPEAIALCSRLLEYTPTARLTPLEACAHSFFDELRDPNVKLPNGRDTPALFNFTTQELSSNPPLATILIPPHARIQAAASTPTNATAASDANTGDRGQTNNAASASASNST
Chain of CDK7/cyclin H (P50613 whole entry, species assumed): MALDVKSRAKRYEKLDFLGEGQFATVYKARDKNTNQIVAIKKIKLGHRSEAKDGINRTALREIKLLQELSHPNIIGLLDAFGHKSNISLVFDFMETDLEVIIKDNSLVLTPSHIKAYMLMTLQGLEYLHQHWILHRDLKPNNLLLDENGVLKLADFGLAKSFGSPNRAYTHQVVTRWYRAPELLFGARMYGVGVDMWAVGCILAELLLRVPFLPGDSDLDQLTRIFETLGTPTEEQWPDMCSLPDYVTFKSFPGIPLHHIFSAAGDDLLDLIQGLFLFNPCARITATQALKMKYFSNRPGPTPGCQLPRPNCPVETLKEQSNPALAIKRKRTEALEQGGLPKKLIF
Chain of CDK7/cyclin H (P51946 whole entry partner, species assumed): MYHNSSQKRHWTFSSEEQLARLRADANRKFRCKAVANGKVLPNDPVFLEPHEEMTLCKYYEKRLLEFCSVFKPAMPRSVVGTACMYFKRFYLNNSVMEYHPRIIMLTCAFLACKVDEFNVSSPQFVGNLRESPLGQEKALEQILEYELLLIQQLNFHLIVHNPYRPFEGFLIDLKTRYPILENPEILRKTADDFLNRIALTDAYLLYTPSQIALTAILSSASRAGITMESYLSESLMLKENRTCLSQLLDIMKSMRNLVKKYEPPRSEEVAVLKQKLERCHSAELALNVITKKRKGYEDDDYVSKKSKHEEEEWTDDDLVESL
Chain of CDK4/cyclin D1 (P11802 whole entry, species assumed): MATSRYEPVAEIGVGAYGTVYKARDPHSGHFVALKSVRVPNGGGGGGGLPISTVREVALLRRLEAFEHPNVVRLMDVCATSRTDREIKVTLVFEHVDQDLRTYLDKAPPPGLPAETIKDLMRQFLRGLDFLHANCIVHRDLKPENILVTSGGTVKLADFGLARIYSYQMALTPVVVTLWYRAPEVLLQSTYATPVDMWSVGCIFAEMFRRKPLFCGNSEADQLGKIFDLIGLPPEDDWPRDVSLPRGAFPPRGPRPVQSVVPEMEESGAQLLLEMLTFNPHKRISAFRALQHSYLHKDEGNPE
Chain of CDK4/cyclin D1 (P24385 whole entry partner, species assumed): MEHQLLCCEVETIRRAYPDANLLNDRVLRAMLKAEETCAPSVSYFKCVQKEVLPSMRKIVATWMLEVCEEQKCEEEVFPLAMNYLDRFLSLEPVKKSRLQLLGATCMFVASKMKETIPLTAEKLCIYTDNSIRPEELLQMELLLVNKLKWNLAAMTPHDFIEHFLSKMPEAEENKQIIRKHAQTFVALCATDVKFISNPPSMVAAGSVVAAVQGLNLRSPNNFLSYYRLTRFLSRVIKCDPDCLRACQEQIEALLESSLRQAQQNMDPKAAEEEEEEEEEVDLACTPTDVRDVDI
Chain of CDK1/cyclin B (P06493 whole entry, species assumed): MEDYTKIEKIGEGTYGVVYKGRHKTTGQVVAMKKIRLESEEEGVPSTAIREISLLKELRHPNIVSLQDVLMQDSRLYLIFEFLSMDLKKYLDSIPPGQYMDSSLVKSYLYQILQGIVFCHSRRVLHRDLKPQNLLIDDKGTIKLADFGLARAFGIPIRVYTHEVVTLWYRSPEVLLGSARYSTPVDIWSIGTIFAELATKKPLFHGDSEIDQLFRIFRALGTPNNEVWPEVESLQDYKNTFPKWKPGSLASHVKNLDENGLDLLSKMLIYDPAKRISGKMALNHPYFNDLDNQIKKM
Chain of CDK1/cyclin B (P14635 whole entry partner, species assumed): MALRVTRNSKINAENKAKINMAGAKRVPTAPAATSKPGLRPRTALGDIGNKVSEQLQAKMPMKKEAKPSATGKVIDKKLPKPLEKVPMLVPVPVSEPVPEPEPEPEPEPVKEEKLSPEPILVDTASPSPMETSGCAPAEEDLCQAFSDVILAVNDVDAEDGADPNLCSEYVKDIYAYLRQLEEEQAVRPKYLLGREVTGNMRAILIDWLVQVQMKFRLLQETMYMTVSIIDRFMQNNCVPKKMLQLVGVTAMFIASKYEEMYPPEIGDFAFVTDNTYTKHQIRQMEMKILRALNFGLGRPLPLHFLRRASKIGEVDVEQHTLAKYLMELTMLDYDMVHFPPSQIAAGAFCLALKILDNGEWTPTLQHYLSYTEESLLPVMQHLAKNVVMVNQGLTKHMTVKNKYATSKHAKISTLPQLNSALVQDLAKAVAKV

IC50 (CDK1/cyclin B)	IC50 (CDK2/cyclin A)	IC50 (CDK2/cyclin E)	IC50 (CDK4/cyclin D1)	IC50 (CDK7/cyclin H)	IC50 (GSK3β)	IC50 (Aurora-A)	IC50 (CDK9/cyclin T1)	Structure (SMILES)	IC50 (A549)	IC50 (HT29)	IC50 (Saos-2)	IC50 [1]
150 nM	150 nM	120 nM	280 nM	1700 nM	30 nM	40 nM	–	OCc1cccc(Nc2nccc(-c3cccc(O)c3)n2)c1 [Compound 72, 3-[2-(3-Hydroxymethyl-phenylamino)-pyrimidin-4-yl]-phenol]	–	–	–	–
2100 nM	–	–	1400 nM	–	80 nM	940 nM	110 nM	N#Cc1cccc(-c2ccnc(Nc3cccc(O)c3)n2)c1 [Compound 92, 3-[2-(3-Hydroxy-phenylamino)-pyrimidin-4-yl]-benzonitrile]	–	–	–	–
1 nM	< 1 nM	10 nM	10 nM	120 nM	10 nM	50 nM	< 1 nM	COc1ccc(-c2ccnc(Nc3cccc(O)c3)n2)cc1 [Compound 76, 3-[4-(4-Methoxy-phenyl)-pyrimidin-2-ylamino]-phenol]	–	–	–	–
830 nM	440 nM	70 nM	2600 nM	650 nM	130 nM	270 nM	20 nM	CN(c1cccc(-c2ccnc(Nc3cccc([N+](=O)[O-])c3)n2)c1)S(C)(=O)=O [Compound 129, N-Methyl-N-{3-[2-(3-nitro-phenylamino)-pyrimidin-4-yl]-phenyl}-methanesulfonamide]	–	–	–	–
960 nM	620 nM	220 nM	1300 nM	1300 nM	50 nM	120 nM	4 nM	CN(c1cccc(-c2ccnc(Nc3cccc(O)c3)n2)c1)S(C)(=O)=O [Compound 130, N-{3-[2-(3-Hydroxy-phenylamino)-pyrimidin-4-yl]-phenyl}-N-methyl-methanesulfonamide]	–	–	–	–
3100 nM	–	–	2500 nM	–	–	1000 nM	–	N#Cc1cccc(-c2ccnc(Nc3ccc(O)cc3)n2)c1 [Compound 93, 3-[2-(4-Hydroxy-phenylamino)-pyrimidin-4-yl]-benzonitrile]	–	–	–	–
1100 nM	1400 nM	130 nM	590 nM	–	350 nM	640 nM	6 nM	COc1cccc(-c2ccnc(Nc3ccc(O)cc3)n2)c1 [Compound 98, 4-[4-(3-Methoxy-phenyl)-pyrimidin-2-ylamino]-phenol]	–	–	–	–
590 nM	470 nM	60 nM	870 nM	550 nM	0.7 nM	160 nM	0.1 nM	O=[N+]([O-])c1cccc(Nc2nccc(-c3cccc(CO)c3)n2)c1 [Compound 91, {3-[2-(3-Nitro-phenylamino)-pyrimidin-4-yl]-phenyl}-methanol]	–	–	–	–
2100 nM	450 nM	180 nM	2500 nM	1400 nM	130 nM	140 nM	10 nM	CN(c1cccc(-c2ccnc(Nc3ccc(O)cc3)n2)c1)S(C)(=O)=O [Compound 131, N-{3-[2-(4-Hydroxy-phenylamino)-pyrimidin-4-yl]-phenyl}-N-methyl-methanesulfonamide]	–	–	–	–
20 nM	20 nM	60 nM	3200 nM	90 nM	20 nM	570 nM	4 nM	CCN(CC)Cc1cccc(-c2ccnc(Nc3cccc([N+](=O)[O-])c3)n2)c1 [Compound 84, [4-(3-Diethylaminomethyl-phenyl)-pyrimidin-2-yl]-(3-nitro-phenyl)-amine]	–	–	–	–
1300 nM	500 nM	110 nM	–	1400 nM	1300 nM	1000 nM	20 nM	CN(C)Cc1cccc(-c2ccnc(Nc3ccc(O)cc3)n2)c1 [Compound 81, 4-[4-(3-Dimethylaminomethyl-phenyl)-pyrimidin-2-ylamino]-phenol]	1500 nM	1200 nM	5000 nM	2600 ± 2100 nM
500 nM	80 nM	120 nM	1300 nM	1500 nM	–	400 nM	20 nM	COc1ccc(-c2ccnc(Nc3ccc(O)cc3)n2)cc1 [Compound 110, 4-[4-(4-Methoxy-phenyl)-pyrimidin-2-ylamino]-phenol]	–	–	–	–
690 nM	590 nM	70 nM	–	720 nM	830 nM	1500 nM	10 nM	CN(C)Cc1cccc(-c2ccnc(Nc3cccc(O)c3)n2)c1 [Compound 80, 3-[4-(3-Dimethylaminomethyl-phenyl)-pyrimidin-2-ylamino]-phenol]	860 nM	1600 nM	4000 nM	2200 ± 1600 nM
1200 nM	350 nM	70 nM	1900 nM	80 nM	10 nM	2600 nM	10 nM	O=[N+]([O-])c1cccc(Nc2nccc(-c3cccc(CN4CCCC(CO)C4)c3)n2)c1 (stereo not shown) [Compound 105, (1-{3-[2-(3-Nitro-phenylamino)-pyrimidin-4-yl]-benzyl}-piperidin-3-yl)-methanol]	–	–	–	–
570 nM	1400 nM	100 nM	200 nM	–	80 nM	20 nM	5 nM	COc1cccc(-c2ccnc(Nc3cccc(O)c3)n2)c1 [Compound 88, 3-[4-(3-Methoxy-phenyl)-pyrimidin-2-ylamino]-phenol]	–	–	–	–
–	480 nM	170 nM	1400 nM	130 nM	100 nM	30 nM	2 nM	CCN(Cc1cccc(-c2ccnc(Nc3cccc([N+](=O)[O-])c3)n2)c1)C(C)C [Compound 46, (4-{3-[(Ethyl-isopropyl-amino)-methyl]-phenyl}-pyrimidin-2-yl)-(3-nitro-phenyl)-amine]	960 nM	530 nM	1100 nM	900 ± 300 nM
380 nM	650 nM	190 nM	–	990 nM	150 nM	7800 nM	20 nM	COc1ccc(Nc2nccc(-c3cccc(CN(C)C)c3)n2)cn1 [Compound 83, [4-(3-Dimethylaminomethyl-phenyl)-pyrimidin-2-yl]-(6-methoxy-pyridin-3-yl)-amine]	1400 nM	910 nM	1600 nM	1300 ± 400 nM
